Consider 1 compound from patent EP0728482A2, “Use of hcp specific compounds to enhance erythropoiesis” (SMITHKLINE BEECHAM CORPORATION, priority 1995, dated 1996).

For the test, the target named is T1, human p85 SH2 domain (Homo sapiens, UniProt P27986).
T1 construct: made in house; host or cells: E. coli (pGEX-3X)
Briefly: ELISA-based SH2 domain / pY peptide binding assay, p85 SH2 domain. The procedure:
The inhibitory activity of compounds at the different human SH2 domains was determined in vitro using SH2 domains expressed as fusion proteins in E. coli. The SH2 domains used herein were the human forms of the src SH2 domain, Grb2 SH2 domain, lck SH2 domain, fyn SH2 domain, SH-PTP2 SH2 domain, p85 SH2 domain and hcp SH2 domain.
Fusion proteins having the structure GST-X-SH2 were prepared as described in the GST gene fusion kit system available from Pharmacia (New Jersey). GST is the tagging sequence glutathione s-transferase epitope (SEQ ID NO: 8) for fyn, Grb2 and SH-PTP2 and is the tagging sequence glutathione s-transferase epitope (SEQ ID NO: 9) for p85. SH2 refers to the SH2 domains of fyn, Grb2, p85 and SH-PTP2 which were expressed and purified using glutathione Sepharose 4B (Pharmacia) according to "Current Protocols in Molecular Biology", ed. FM Ausubel et al., pub. John Wiley and Sons, Inc., (1995), p 16.7.1. X is an appropriate linker, preferably of 6 to 21 base pairs, used to keep the SH2 construct in frame and complement cloning. As such, the sequence of X is not critical. One skilled in the art can readily construct the appropriate linker. The DNA sequence encoding each GST-X-SH2 fusion protein was designed such that the indicated restriction sites (BamH1 and EcoRI) flank the SH2 region. […]

T1 sequence (P27986 321-440): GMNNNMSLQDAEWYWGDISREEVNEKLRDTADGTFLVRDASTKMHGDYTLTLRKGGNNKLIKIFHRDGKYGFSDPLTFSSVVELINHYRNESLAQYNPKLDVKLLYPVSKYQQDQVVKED

On to `CCCCCCNC(=O)[C@H]1CC[C@H](CNC(=O)c2ccc(C(=O)c3ccc(C(=O)O)cc3)cc2)CC1` [Compound 6, 4-carboxy-benzophenone-4-carboxamido-trans-4-methyl-cyclohexyl-N-hexyl carboxamide], for which, under “Ki calculated from IC50 with the expanded equation”, the Ki was > 1000 µM. Under “inhibition of binding of 0.1 uM biotinylated pY peptide to SH2 domain fusion protein”, the IC50 is > 300 µM.
